According to patent US20240240226A1, “FLUOROGENIC ASSAY FOR RAPID SCREENING OF BACTERIAL BETA-LACTAMASE ACTIVITY” (The Board of Trustees of the Leland Stanford Junior …, priority 2021, published 2024):

Experiments:
TEM-1 Bla = target: T1, TEM-1 Bla (Escherichia coli, UniProt P62593); test: CDA fluorescence turn-on with recombinant TEM-1 Bla, esterase and H2O2; assay type: biochemical
T1 construct: TEV(Cys) (TEV site / Cys element as named in the plasmid); made in house; host or cells: E. coli (BL21 or TOP10)
T1 sequence (P62593 24-286 limits assumed): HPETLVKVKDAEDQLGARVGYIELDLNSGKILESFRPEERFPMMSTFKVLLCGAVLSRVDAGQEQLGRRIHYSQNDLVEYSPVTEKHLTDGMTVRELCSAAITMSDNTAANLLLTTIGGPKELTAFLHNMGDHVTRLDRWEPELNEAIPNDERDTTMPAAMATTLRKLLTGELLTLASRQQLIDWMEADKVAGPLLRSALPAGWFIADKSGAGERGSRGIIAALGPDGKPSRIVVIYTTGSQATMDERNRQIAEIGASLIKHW

[1] = tested on: β-lactamases (TEM-1 Bla, AmpC, BlaC, IMP-1, OXA-48, KPC-3); test: Detection of recombinant β-lactamases by CDA with esterase and H2O2; assay type: biochemical; conditions: all β-lactamases; esterase 1 μg/mL, H2O2 1 mM, 2 hours, room temperature; 3x SD of negative controls
E. coli/TEM-1 = test: CDA detection of live E. coli expressing TEM-1 Bla; assay type: cell-based
Experimental: (§1) FIG. 3 illustrates the characterization of CDA with HRP, H2O2, E. coli expressing TEM-1 Bla (E. coli/TEM-1) and IMP-1 carbapenemase (E. coli/IMP-1), and K. pneumoniae expressing KPC carbapenemase (K. pneumoniae/KPC). a) Fluorescence enhancement of CDA incubated with different concentrations of E. coli expressing TEM-1 Bla. b) Fluorescence enhancement of CDA; HRP (1 unit/mL), H2O2 (1 μM), and either viable E. coli expressing TEM-1 Bla or bacterial lysate extracted from equal c.f.u. per milliliter. c) Fluorescence enhancement of CDA incubated with different concentrations of E. coli expressing TEM-1 Bla (H2O2, 1 mM). d) Fluorescent intensity of E. coli and E. coli/TEM-1 preincubated with CDA for 20 hours upon addition of H2O2 (500 μM) for 5 min. Error bars represent ±SD, n=3. * p<0.0332; **p<0.0021, ****p<0.0001, ns: not significant. e) Fluorescence enhancement of CDA incubated with different concentrations of E. coli expressing IMP-1 carbapenemase in the presence of H2O2 (1 mM). f) Fluorescence enhancement of CDA incubated with different concentrations of K. pneumoniae expressing KPC carbapenemase (H2O2, 1 mM). […] Data were collected on a Tecan Safire microplate reader with excitation at 570 nm and emission at 600 nm. […]
It was studied if CDA could report β-lactamase activity in live E. coli and Klebsiella pneumoniae (K. pneumoniae) which are commonly found in many infections. Three transformed E. coli strains expressing the most clinically prevalent β-lactamases including TEM-1 Bla (E. coli/TEM-1) and two carbapenemases were evaluated: a metallo-β-lactamase IMP-1 (E. coli/IMP-1) and a unique class A β-lactamase KPC-3 (E. coli/KPC-3) that hydrolyze carbapenem antibiotics. […]
To address the question of whether a higher concentration of H2O2 would equilibrate across membranes of viable bacteria and accelerate the oxidation of processed CDA, a serial dilution of H2O2 (100 μM, 500 μM, 1 mM, 2 mM) was incubated with CDA and different concentrations of E. coli and E. coli/TEM-1 for a longitudinal reading (FIGS. 3c, 21b, and 22). […]

E. coli/IMP-1 = test: CDA/H2O2 detection of live E. coli expressing IMP-1 carbapenemase; assay type: cell-based; conditions: H2O2 1 mM, within 2 hours
Experimental: FIG. 3 illustrates the characterization of CDA with HRP, H2O2, E. coli expressing TEM-1 Bla (E. coli/TEM-1) and IMP-1 carbapenemase (E. coli/IMP-1), and K. pneumoniae expressing KPC carbapenemase (K. pneumoniae/KPC). a) Fluorescence enhancement of CDA incubated with different concentrations of E. coli expressing TEM-1 Bla. b) Fluorescence enhancement of CDA; HRP (1 unit/mL), H2O2 (1 μM), and either viable E. coli expressing TEM-1 Bla or bacterial lysate extracted from equal c.f.u. per milliliter. c) Fluorescence enhancement of CDA incubated with different concentrations of E. coli expressing TEM-1 Bla (H2O2, 1 mM). d) Fluorescent intensity of E. coli and E. coli/TEM-1 preincubated with CDA for 20 hours upon addition of H2O2 (500 μM) for 5 min. Error bars represent ±SD, n=3. * p<0.0332; **p<0.0021, ****p<0.0001, ns: not significant. e) Fluorescence enhancement of CDA incubated with different concentrations of E. coli expressing IMP-1 carbapenemase in the presence of H2O2 (1 mM). f) Fluorescence enhancement of CDA incubated with different concentrations of K. pneumoniae expressing KPC carbapenemase (H2O2, 1 mM). All the studies were duplicated at room temperature with PBS (pH=7.05) as the buffer unless other indicated. The working concentration of CDA was 10 μM. […] Data were collected on a Tecan Safire microplate reader with excitation at 570 nm and emission at 600 nm. […]

K. pneumoniae/KPC = test: CDA/H2O2 detection of K. pneumoniae expressing KPC carbapenemase; assay type: cell-based; conditions: clinical isolate, H2O2 1 mM, within 2-3 hours
Experimental: as §1
CDA was also tested for detecting K. pneumoniae. […] Similar to E. coli/KPC-3, 10^6 c.f.u./mL KPC-positive K. pneumoniae could be detected within 2-3 hours. […]

esterase = test: Response of CDA to H2O2 with esterases alone; assay type: biochemical

SMILES: CC(=O)Oc1ccc2c(c1)Oc1cc(OC(C)=O)ccc1N2C(=O)OCc1ccc(SCC2=C(C(=O)O)N3C(=O)[C@@H](NC(=O)Cc4ccccc4)[C@H]3SC2)cc1 [CDA, 3-(((4-(((3,7-diacetoxy-10H-phenoxazine-10-carbonyl)oxy)methyl)phenyl)thio)methyl)-8-oxo-7-(2-phenylacetamido)-5-thia-1-azabicyclo[4.2.0]oct-2-ene-2-carboxylic acid]
- minimum CDA concentration required for reporting β-lactamase/esterase activity (TEM-1 Bla; esterase 1 μg/mL, TEM-1 Bla 100 nM, H2O2 1 mM): 100 nM
- fluorescence with TEM-1 Bla and esterase without H2O2 (TEM-1 Bla; no H2O2, oxidation by dissolved oxygen): displayed fluorescence turn-on
- limit of detection of β-lactamases [1]: 1 femtomole
- effect of adding HRP and H2O2 on fluorescence with viable bacteria (E. coli/TEM-1; HRP 1 unit/mL, H2O2 1 μM, bacteria not lysed): contributed little to the fluorescence increase
- number of bacteria detectable in one 96 well (E. coli/TEM-1; factoring the 100 μL assay volume): 100 bacteria
- bacteria concentration detectable (E. coli/TEM-1; noninduced E. coli/TEM-1, H2O2 1 mM, within 2-3 hours): 10^6-10^7 c.f.u./mL
- bacteria concentration detected (E. coli/IMP-1): 105 c.f.u./mL
- bacteria concentration detected (K. pneumoniae/KPC): 10^6 c.f.u./mL
- change of the response of CDA to H2O2 (esterase): barely changed
